Assay: xn = mol fraction of the nth substance listed
Details: 298.15 K, Liquid

ClCCCCCl [1,4-dichlorobutane] + CN1CCCC1=O
mass density [kg/m3]
Details	x2 = 0.1039	x2 = 0.2034	x2 = 0.3036	x2 = 0.402	x2 = 0.5025	x2 = 0.5968	x2 = 0.7003	x2 = 0.8008	x2 = 0.8971
10000 kPa	–	–	–	–	1090.3	1080	1068.6	1057.1	1045.6
10500 kPa	1131.4	1121.6	1111.4	1101.3	1090.6	1080.3	1068.9	1057.3	1045.9
11000 kPa	1131.7	1122	1111.8	1101.6	1090.9	1080.6	1069.2	1057.6	1046.1
11500 kPa	1132.1	1122.3	1112.1	1101.9	1091.2	1080.9	1069.4	1057.9	1046.4
11900 kPa	–	–	–	–	–	–	–	–	1046.6
12000 kPa	1132.5	1122.6	1112.4	1102.2	1091.6	1081.2	1069.7	1058.2	–
12400 kPa	–	–	–	–	–	–	–	–	1046.9
12500 kPa	1132.8	1122.9	1112.8	1102.6	1091.9	1081.5	1070	1058.4	–
12900 kPa	–	–	–	–	1092.2	–	–	–	–
13000 kPa	1133.1	1123.3	1113.1	1102.9	–	1081.8	1070.3	1058.7	1047.2
13400 kPa	–	–	–	–	–	–	–	1059	–
13500 kPa	1133.5	1123.6	1113.4	1103.2	1092.5	1082.1	1070.5	–	1047.4
13900 kPa	–	–	1113.7	–	–	–	–	–	–
14000 kPa	1133.8	1124	–	1103.5	1092.8	1082.4	1070.9	1059.2	1047.7
14400 kPa	–	–	–	–	–	–	1071.1	1059.5	–
14500 kPa	1134.2	1124.3	1114	1103.8	1093.1	1082.6	–	–	1048
14900 kPa	–	–	–	–	1093.3	–	–	–	–
15000 kPa	1134.5	1124.7	1114.4	1104.1	–	1083	–	–	–
